# Experimental data published in PMC6642016 (Nature chemical biology, 2019).
# Tests used:
# Format in all cases: biochemical
# PtmJ = target: T1, PtmJ (Streptomyces pactum, UniProt A8R0J5); experiment: mass spectrometry of GlcNAc-3ABA-SNAC; settings: donor UDP-GlcNAc
# T1 sequence (A8R0J5 1-318): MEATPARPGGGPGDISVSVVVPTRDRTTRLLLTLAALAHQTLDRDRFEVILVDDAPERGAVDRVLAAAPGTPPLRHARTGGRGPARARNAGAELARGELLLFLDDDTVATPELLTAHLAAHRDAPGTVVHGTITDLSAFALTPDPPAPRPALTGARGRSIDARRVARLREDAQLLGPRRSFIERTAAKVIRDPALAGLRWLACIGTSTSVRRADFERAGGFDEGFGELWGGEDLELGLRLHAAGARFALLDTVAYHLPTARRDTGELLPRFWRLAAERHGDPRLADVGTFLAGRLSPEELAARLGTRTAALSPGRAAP
# PtmS = target: T2, PtmS (Streptomyces pactum, UniProt B7TWM6); experiment: HPLC and LC-MS of 3ABA-AMP; settings: MgCl2 5 mM, Tris-HCl pH 8.0, 30 °C
# T2 sequence (B7TWM6 1-505): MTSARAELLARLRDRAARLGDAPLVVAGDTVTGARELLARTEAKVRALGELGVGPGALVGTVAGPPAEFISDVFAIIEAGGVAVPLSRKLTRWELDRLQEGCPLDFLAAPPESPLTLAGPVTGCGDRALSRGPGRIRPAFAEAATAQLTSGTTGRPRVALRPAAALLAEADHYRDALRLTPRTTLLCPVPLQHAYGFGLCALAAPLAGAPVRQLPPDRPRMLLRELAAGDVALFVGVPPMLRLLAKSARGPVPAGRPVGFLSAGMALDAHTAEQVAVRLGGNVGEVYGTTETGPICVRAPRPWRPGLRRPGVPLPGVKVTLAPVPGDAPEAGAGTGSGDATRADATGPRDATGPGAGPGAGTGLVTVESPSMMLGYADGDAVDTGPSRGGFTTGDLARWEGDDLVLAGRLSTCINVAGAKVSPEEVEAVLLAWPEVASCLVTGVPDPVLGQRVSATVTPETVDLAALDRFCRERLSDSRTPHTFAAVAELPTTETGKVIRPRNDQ
# PtmI = target: T3, PtmI (Streptomyces pactum, UniProt A8R0J4); experiment: LC-MS of intact protein; settings: covalent; holo-PtmI 200 μM, malonyl-CoA 8 mM, Tris-HCl pH 8.0, 30 °C
# T3 sequence (A8R0J4 1-94): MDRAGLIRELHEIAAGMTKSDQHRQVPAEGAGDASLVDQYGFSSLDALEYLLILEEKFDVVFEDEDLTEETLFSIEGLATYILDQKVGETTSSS
compound,measurement,setting,value
CC(=O)NCCSC(=O)c1cccc(N)c1 [3ABA-SNAC],mass spectrometry of GlcNAc-3ABA-SNAC,PtmJ,PtmJ reaction mixture showing that 3ABA-SNAC can be glycosylated to give GlcNAc-3ABA-SNAC
Nc1ncnc2c1ncn2[C@@H]1O[C@H](COP(=O)(O)OP(=O)(O)OP(=O)(O)O)[C@@H](O)[C@H]1O [ATP],HPLC and LC-MS of 3ABA-AMP; coupled pyrophosphate assay,PtmS; 3ABA 2 mM,incubated with 3ABA in the presence of ATP and MgCl2 to give 3-aminobenzoyl-AMP (3ABA-AMP)
"Nc1cccc(C(=O)O)c1 [compound 3, 3-aminobenzoic acid]",HPLC and LC-MS of 3ABA-AMP; coupled pyrophosphate assay,PtmS; ATP 5 mM,the purified protein was incubated with 3ABA in the presence of ATP and MgCl2
CC(C)(COP(=O)(O)OP(=O)(O)OC[C@H]1O[C@@H](n2cnc3c(N)ncnc32)[C@H](O)[C@@H]1OP(=O)(O)O)[C@@H](O)C(=O)NCCC(=O)NCCSC(=O)CC(=O)O [malonyl-CoA],"LC-MS of intact protein (malonyl-PtmI, self-acylation)",PtmI,Incubation of the holo-PtmI with malonyl-CoA (Figure 3a) also led to the formation of malonyl-PtmI
